Data from ChEMBL document CHEMBL1201862, “PubChem BioAssay data set” (2004).
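Each compound was tested at five concentrations against cells in 96-well plates for 48 hours. GI50 = concentration required for 50% inhibition of growth.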 Calls of active or inactive are those of the source. Rule as the data show it: active = GI50 up to about 1.1 µM and inactive = higher.

Legend:
Assay in all cases: inhibition of tumour cell growth, NCI panel, 48 h
[1] = system: OVCAR-8
[2] = system: CAKI-1
[3] = system: 786-0
[4] = system: DU-145
[5] = system: UACC-257
[6] = system: TK-10
[7] = system: KM12
[8] = system: MDA-MB-435
[9] = system: UO-31
[10] = system: SK-MEL-28
[11] = system: MOLT-4
[12] = system: SK-MEL-2
[13] = system: K562
[14] = system: NCI/ADR-RES
[15] = system: Hs-578T
[16] = system: MDA-N
[17] = system: HCT-15
[18] = system: HL-60
[19] = system: EKVX
[20] = system: ACHN

Compound	GI50 [1]	GI50 [2]	GI50 [3]	GI50 [4]	GI50 [5]	GI50 [6]	GI50 [7]	GI50 [8]	GI50 [9]	GI50 [10]	GI50 [11]	GI50 [12]	GI50 [13]	GI50 [14]	GI50 [15]	GI50 [16]	GI50 [17] [µM]	GI50 [18]	GI50 [19]	GI50 [20]
COc1ccc2[nH]c(CCNC(=O)c3cc([N+](=O)[O-])cc([N+](=O)[O-])c3)cc2c1	44.5 µM (inactive)	26.1 µM (inactive)	21.2 µM (inactive)	> 100 µM (inactive)	> 100 µM (inactive)	46.8 µM (inactive)	> 100 µM (inactive)	> 100 µM (inactive)	> 100 µM (inactive)	> 100 µM (inactive)	> 100 µM (inactive)	65.8 µM (inactive)	> 100 µM (inactive)	> 100 µM (inactive)	58.9 µM (inactive)	> 100 µM (inactive)	> 100	> 100 µM (inactive)	–	–
O=C1CC[N+]2=Cc3ccccc3O[B-]2(c2ccccc2)O1 (stereo not drawn)	> 100 µM (inactive)	> 100 µM (inactive)	> 100 µM (inactive)	> 100 µM (inactive)	> 100 µM (inactive)	> 100 µM (inactive)	> 100 µM (inactive)	> 100 µM (inactive)	> 100 µM (inactive)	> 100 µM (inactive)	> 100 µM (inactive)	> 100 µM (inactive)	> 100 µM (inactive)	> 100 µM (inactive)	> 100 µM (inactive)	> 100 µM (inactive)	> 100	89.9 µM (inactive)	> 100 µM (inactive)	> 100 µM (inactive)
CNc1nc2c(C)ccc3nc(N(C)C)[nH]c3c-2n1	34.5 µM (inactive)	65.5 µM (inactive)	51.3 µM (inactive)	42.2 µM (inactive)	33.3 µM (inactive)	> 100 µM (inactive)	39.4 µM (inactive)	50.8 µM (inactive)	34.6 µM (inactive)	52 µM (inactive)	32.7 µM (inactive)	93.1 µM (inactive)	12.8 µM (inactive)	77.1 µM (inactive)	97.9 µM (inactive)	33.8 µM (inactive)	23.9	26.9 µM (inactive)	30.1 µM (inactive)	15.2 µM (inactive)
C/C(=N\NC(=S)NC(C)(C)C)c1nc2cccnc2[nH]1	1.5 µM (inactive)	3.33 µM (inactive)	3.02 µM (inactive)	2.43 µM (inactive)	3.09 µM (inactive)	7.35 µM (inactive)	4.8 µM (inactive)	5.37 µM (inactive)	1.06 µM (active)	8.71 µM (inactive)	2.13 µM (inactive)	3.85 µM (inactive)	1.83 µM (inactive)	3.03 µM (inactive)	3.36 µM (inactive)	7.38 µM (inactive)	2.47	1.2 µM (inactive)	2.5 µM (inactive)	2.82 µM (inactive)
O=c1oc2c(ccc3ccccc32)cc1C1=CSC2=NCCN12	54.7 µM (inactive)	75.5 µM (inactive)	38.7 µM (inactive)	26.5 µM (inactive)	56.1 µM (inactive)	49.3 µM (inactive)	55.5 µM (inactive)	53.3 µM (inactive)	23.3 µM (inactive)	35.2 µM (inactive)	34.2 µM (inactive)	> 100 µM (inactive)	33.4 µM (inactive)	75.2 µM (inactive)	73.1 µM (inactive)	51.6 µM (inactive)	38.4	34.7 µM (inactive)	25.5 µM (inactive)	35.2 µM (inactive)
O=[N+]([O-])c1cccc(-c2ncc3c(n2)-c2ccccc2C3)c1	> 100 µM (inactive)	42.7 µM (inactive)	22.9 µM (inactive)	> 100 µM (inactive)	> 100 µM (inactive)	47.1 µM (inactive)	> 100 µM (inactive)	> 100 µM (inactive)	> 100 µM (inactive)	> 100 µM (inactive)	> 100 µM (inactive)	> 100 µM (inactive)	> 100 µM (inactive)	> 100 µM (inactive)	32.9 µM (inactive)	> 100 µM (inactive)	> 100	> 100 µM (inactive)	94.4 µM (inactive)	> 100 µM (inactive)
COCCOC(=O)c1c(C)[n+]([O-])c2cc(Cl)c(Cl)cc2[n+]1[O-]	7.06 µM (inactive)	19 µM (inactive)	22.6 µM (inactive)	11.5 µM (inactive)	20.2 µM (inactive)	23.2 µM (inactive)	10.8 µM (inactive)	17.5 µM (inactive)	0.311 µM (active)	28.4 µM (inactive)	13.1 µM (inactive)	25.3 µM (inactive)	13.7 µM (inactive)	11 µM (inactive)	32.7 µM (inactive)	23.2 µM (inactive)	8.71	6.41 µM (inactive)	17.1 µM (inactive)	12.7 µM (inactive)
